The text below walks through data of PMC8330742, “New benzothieno[2,3-c]pyridines as non-steroidal CYP17 inhibitors: design, synthesis, anticancer screening, apoptosis induction, and in silico ADME profile studies” (Journal of Enzyme Inhibition and Medicinal Chemistry, 2021).

For assay [1], the system named is CYP17 enzyme. The experiment in a line: CYP17 enzyme ELISA in mice prostate cancer model. The class given is in vivo. The settings on record: 5 mg/kg i.p., 5 days a week, ELISA of tissue (Mice testis). Here is the method:
(§1) A total of 16 mice from the TRAMP/FVB background ([…], male, average 45 days, average weight […], mice with prostate cancer) were taken and divided into 2 groups with 8 animals in each group. One group of mice was given a drug in 0.2 ml of DMSO and phosphate-buffered saline (1:10) ratio (5 mg/kg body weight, i.p., 5 days a week). The control group animals were treated with 0.2 ml of DMSO and phosphate-buffered saline (1:10) ratio. A total of eight mice, four animals from each group, were examined at 13 weeks of age, and the remaining animals from each group were examined at 20 weeks for prostate tumour development. Treatment was stopped 24 h before killing the animals.
BioSource 2704060 96 assay kit is a sandwich enzyme immunoassay for in vitro quantitative measurement of CYP17 enzyme activity in mouse tissue homogenates, cell lysates, cell culture supernatant, and other biological fluids. Tested tissues were rinsed in ice-cold PBS to remove excess blood and weighed before homogenisation. The tissues were minced and homogenised in fresh lysis buffer with a glass homogeniser. (catalog: IS007, different lysis buffer needs to be chosen based on subcellular location of the target protein) (w:v = 1:20–1:50, e.g. 1 ml lysis buffer is added in 20–50 mg tissue sample) The resulting suspension was sonicated with an ultrasonic cell disrupter till the solution was clarified. The homogenates were centrifuged for 5 min at 10,000 × g, and the supernatant was collected. An Aliquot was assayed and stored at ≤ −20 °C.
The assay sample and standard were incubated together with CYP-HRP conjugate in an appropriate number of microplates pre-coated with an antibody specific for the CYP17 enzyme for 1 h. After the incubation period, the wells were decanted and washed five times. The wells were then incubated with a substrate for the HRP enzyme. […] Colour intensity was measured spectrophotometrically at 450 nm in a microplate reader. […]
Assay procedures: Wells for a standard, blank, and sample were prepared. […] The absorbance was measured immediately at 450 nm.

Assay [2] concerns CYP17. To be noted: Figure 1, known CYP17 inhibitors; cited from earlier work.
For assay [3], the system named is plasma testosterone. Nature of the assay: Testosterone ELISA assay in mice prostate cancer model. To be noted: 5 mg/kg i.p., 5 days a week, ELISA, 5 mg/kg. The class given is in vivo. Here is the method:
as §1
The BioVendor mouse/rat testosterone ELISA assay is a competitive immunoassay for the measurement of testosterone in rat and mouse serum or plasma based on the principle of competitive binding. An unknown amount of testosterone present in the sample (plasma or serum) and a known amount of testosterone conjugated to horseradish peroxidase compete for the binding sites of testosterone antiserum coated to the wells of a microplate. The sample was incubated with the microplate for 1 h, then washed four times. The HRP substrate solution was added followed by the stop solution. Colour change has been observed, and the optical density was measured at 450 nm.
Assay procedures: Sufficient number of microplate wells were prepared to accommodate standard and samples in duplicates. The standard, sample, and control (10 µL each) were dispensed with new disposable tips into appropriate wells. Incubation buffer 100 µL was dispensed into each well. Afterward, enzyme conjugate (50 µL) was added to each well and incubated for 60 min at room temperature on a microplate mixer. The content of the wells was discarded, and the wells were rinsed 4 times with diluted wash solution (300 µL per well). The substrate solution (200 µL) was added to each well and incubated in the dark without shaking for 30 min. The reaction was stopped by adding a stop solution (2 N hydrochloric acid solution, 50 µL) to each well. The absorbance of each well was determined at 450 nm.

Assay [4] relates to prostate cancer cell line (PC-3). Nature of the assay: MTT cytotoxicity assay. To be noted: Homo sapiens. The class given is cell-based, human. Here is the method:
The MTT method for monitoring in vitro cytotoxicity was used with multiwell plates. Three human cell lines, namely prostate cancer cell line (PC-3), renal cancer cell line (UO-31), and breast cancer cell line (MCF-7) were obtained from the American Type Culture Collection ATCC, Manassas, VA, USA). The cells were trypsinized and seeded in 96 well plates with a density of 1.2 − 1.8 × 10,000 cells/well for 24 h at 37 °C. After treating the cells with five concentrations of compound 5c (0.01, 0.1, 1, 10, 100 µM), an MTT solution (Sigma Co., St. Louis, MO, USA) (5 mg/mL in phosphate buffer solution) was applied to each well and […]. The plates were cultivated in 5% CO2 for 4 h at 37 °C. Successively, the remaining formazan crystals were dissolved in 100 µl of DMSO, and the absorbance was determined with the ROBONIK P2000 spectrophotometer at a wavelength of 570 nm. The obtained values were analysed using Gen5 software (BioTek, UK). The proliferation percentage in each treated cell line was standardised based on their control wells. Both tests have been conducted in triplicate. The IC50 values were calculated using sigmoidal dose-response curve fitting models. […] Each test included a blank containing a complete medium without cells.

Assay [5] has as its system WI-38 human cell line. Nature of the assay: In vitro cytotoxicity on WI-38 human cell line (MTT). The class given is cell-based. The settings on record: WI-38 normal human cell line. The protocol:
Cell Line cells were obtained from American Type Culture Collection and were cultured using DMEM (Invitrogen/Life Technologies) supplemented with 10% FBS (Hyclone), 10 µg/ml of insulin (Sigma), and 1% penicillin-streptomycin. All of the other chemicals and reagents were obtained from Sigma or Invitrogen. Plate cells were incubated (cells density 1.2–1.8 × 10,000 cells/well) in a volume of 100 µL complete growth medium and 100 ul of the tested compound per well in a 96-well plate for 24 h before the MTT assay. The cultures were removed from the incubator into a laminar flow hood or other sterile work area followed by the addition of reconstituted MTT in an amount equal to 10% of the culture medium volume, then incubated for an additional 2 h. After the incubation period, cultures were removed from the incubator, and the resulted formazan crystals were dissolved by adding an amount of MTT solubilisation solution [M-8910] equal to the original culture medium volume, then the absorbance at a wavelength of 570 nm was measured. Finally, the IC50 of the tested compound compared to the reference was calculated using GraphPad Prism software.

Setting [6] is: listed as Abireratone reference.
Where [7] appears, read: listed as abiraterone reference.

Take `C[C@]12CC[C@H](O)CC1=CC[C@@H]1[C@@H]2CC[C@]2(C)C(c3cccnc3)=CC[C@@H]12` [Abiraterone, abiraterone, reference compound]: the “CYP17 enzyme aver. conc.” value in assay [1] (setting [6]) turned out to be 10.72 nM; in assay [1] (setting [7]), 10.72 ± 0.17 nM. Also, the half-inhibitory concentration (IC50) is 0.002 µM in assay [2] and 8.3 µM in assay [4]. For the same compound, the “Plasma testosterone aver. conc.” value in assay [3] (setting [6]) was determined as 13.79 nM; in assay [3] (setting [7]), 13.79 ± 0.33 nM.

Regarding `CN[C@@H]1C[C@H]2O[C@@](C)([C@@H]1OC)n1c3ccccc3c3c4c(c5c6ccccc6n2c5c31)C(=O)NC4` [staurosporine, reference compound], the results for the IC50 in assay [5] and in assay [4] were 19.2 µM and 5.1 µM, respectively.
